Here are results for 9 compounds from patent publication US8962608B2, “Cycloalkylnitrile pyrazole carboxamides as janus kinase inhibitors” (Merck Sharp & Dohme Corp., priority 2011, dated 2015).

Where a name gives a salt, the structure may show the parent alone.

Assay [1] concerns the target JAK1 (recombinant purified GST-tagged catalytic domain) (Homo sapiens (Human), UniProt P23458). Description: biochemical.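 Further: biochemical assay with HTRF read-out.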
Assay [2] has as its target JAK2 (recombinant purified GST-tagged catalytic domain) (Homo sapiens (Human), UniProt O60674). Kind of assay: biochemical.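 Further: biochemical JAK kinase assay with HTRF detection.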

Chain of JAK2 (recombinant purified GST-tagged catalytic domain) (O60674 849-1124): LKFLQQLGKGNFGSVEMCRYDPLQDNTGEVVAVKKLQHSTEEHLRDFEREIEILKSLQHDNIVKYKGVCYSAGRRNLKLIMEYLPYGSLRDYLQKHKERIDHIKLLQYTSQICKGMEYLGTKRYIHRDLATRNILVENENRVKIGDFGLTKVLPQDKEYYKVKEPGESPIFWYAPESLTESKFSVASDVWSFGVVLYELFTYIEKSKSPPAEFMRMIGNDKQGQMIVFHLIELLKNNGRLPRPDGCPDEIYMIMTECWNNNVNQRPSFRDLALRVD
Chain of JAK1 (recombinant purified GST-tagged catalytic domain) (P23458 875-1153): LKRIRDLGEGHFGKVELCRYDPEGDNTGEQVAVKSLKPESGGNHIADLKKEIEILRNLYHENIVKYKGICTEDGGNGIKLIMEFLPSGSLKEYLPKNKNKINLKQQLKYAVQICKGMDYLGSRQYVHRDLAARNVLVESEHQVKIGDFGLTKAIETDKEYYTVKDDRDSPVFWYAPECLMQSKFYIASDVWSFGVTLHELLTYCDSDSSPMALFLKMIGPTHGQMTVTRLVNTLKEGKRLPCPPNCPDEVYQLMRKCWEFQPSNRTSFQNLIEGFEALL

One may read the IC50 as the concentration that gives 50% inhibition. Turning to `N#C[C@@H]1CCCC[C@H]1n1cc(C(N)=O)c(Nc2ccc(S(=O)(=O)Nc3ccccn3)cc2)n1` (single isomer, unassigned) [Example 17-67, 1-[(1R,2R or 1S,2S)-2-cyanocyclohexyl]-3-{[4-(pyridin-2-ylsulfamoyl)phenyl]amino}-1H-pyrazole-4-carboxamide], the IC50 was 3 nM in assay [1] and 9 nM in assay [2].
On the same counts, the results for `N#C[C@H]1CCCC[C@@H]1n1cc(C(N)=O)c(Nc2ccc(S(=O)(=O)NCc3ccccc3Cl)cc2)n1` (single isomer, unassigned) [Example 17-91, 3-({4-[(2-chlorobenzyl)sulfamoyl]phenyl}amino)-1-[(1R,2R or 1S,2S)-2-cyanocyclohexyl]-1H-pyrazole-4-carboxamide] are 0.5 nM and 2 nM.
For the compound `N#C[C@@H]1C[C@H](C(=O)NC2CC(F)(F)C2)CC[C@H]1n1cc(C(N)=O)c(Nc2ccc(Cl)cc2)n1` (single isomer, unassigned) [Example 35-18, 3-[(4-chlorophenyl)amino]-1-{(1R,2R,4R or 1S,2S,4S)-2-cyano-4-[(3,3-difluorocyclobutyl)carbamoyl]cyclohexyl}-1H-pyrazole-4-carboxamide], the results for the half-maximal inhibitory concentration (IC50) in assay [1] and in assay [2] were 13 nM and 136 nM, respectively.
On the same counts, the results for `N#C[C@H]1C[C@@H](N)CCC1n1cc(C(N)=O)c(Nc2ccc(F)cc2)n1` (mixture of isomers) [Example 29, (1S,3S,4S and 1R,3R,4R)-4-{4-Carbamoyl-3-[(4-fluorophenyl)amino]-1H-pyrazol-1-yl}-3-cyanocyclohexanaminium trifluoroacetate] are 1 nM and 35 nM.
On the same counts, the results for `N#C[C@@H]1CCCC[C@H]1n1cc(C(N)=O)c(Nc2ccc(S(=O)(=O)NCC3CC3)cc2)n1` (single isomer, unassigned) [Example 17-66, 1-[(1R,2R or 1S,2S)-2-cyanocyclohexyl]-3-({4-[(cyclopropylmethyl)sulfamoyl]phenyl}amino)-1H-pyrazole-4-carboxamide] are 0.33 nM and 1 nM.
On the same counts, the results for `N#C[C@H]1C[C@H](O)CC[C@@H]1n1cc(C(N)=O)c(Nc2ccc(C(F)(F)F)nc2)n1` (single isomer, unassigned) [Example 25-10, 1-[(1S,2S,4R or 1R,2R,4S)-2-cyano-4-hydroxycyclohexyl]-3-{[6-(trifluoromethyl)pyridin-3-yl]amino}-1H-pyrazole-4-carboxamide] are 4 nM and 17 nM.
In the case of `N#C[C@H]1C[C@@H](O)CC[C@@H]1n1cc(C(N)=O)c(Nc2ccc([C@H](O)C(F)(F)F)cc2)n1` (single isomer, unassigned) [Example 33-10, 1-[(1S,2S,4S or 1R,2R,4R)-2-cyano-4-hydroxycyclohexyl]-3-({4-[(1S)-2,2,2-trifluoro-1-hydroxyethyl]phenyl}amino)-1H-pyrazole-4-carboxamide], the results for the IC50 in assay [1] and in assay [2] were 0.3 nM and 2 nM, respectively.
On the same counts, the results for `N#C[C@H]1C[C@H](N[C@@H](C2CC2)C(F)(F)F)CC[C@@H]1n1cc(C(N)=O)c(Nc2ccc(C(F)(F)F)cc2)n1` (single isomer, unassigned) [Example 28-195, 1-[(1S,2S,4R or 1R,2R,4S)-2-cyano-4-{[(1R)-1-cyclopropyl-2,2,2-trifluoroethyl]amino}cyclo-hexyl]-3-{[4-(trifluoromethyl)phenyl]amino}-1H-pyrazole-4-carboxamide] are 177 nM and 375 nM.
`N#C[C@H]1CCC[C@@H](O)C1n1cc(C(N)=O)c(Nc2ccccc2)n1` (mixture of isomers) [Example 2-6, 1-[(1R,2S,6R and 1S,2R,6S)-2-cyano-6-hydroxycyclohexyl]-3-(phenylamino)-1H-pyrazole-4-carboxamide]: the IC50 is 370 nM in assay [1] and 1000 nM in assay [2].
